What was measured:
[1] = target: Vascular endothelial growth factor receptor 3 (Homo sapiens) (UniProt P35916); experiment: Inhibition of recombinant human FLT4 expressed in insect cells assessed as remaining activity at 10 uM preincubated for 15 mins followed by poly(Glu:Tyr) substrate addition for 30 mins in presence of [gamma-32P]ATP by […] assay
[2] = target: Tyrosine-protein kinase Fes/Fps (Homo sapiens) (UniProt P07332); experiment: Inhibition of recombinant human FES expressed in insect Sf21 cells assessed as remaining activity at 10 uM preincubated for 15 mins followed by poly(Glu:Tyr) substrate addition for 30 mins in presence of [gamma-32P]ATP by […] assay
[3] = target: Aurora kinase A (Homo sapiens) (UniProt O14965); experiment: Inhibition of recombinant human AURORA A expressed in insect Sf21 cells assessed as remaining activity at 10 uM preincubated for 15 mins followed by Kemptide substrate addition for 30 mins in presence of [gamma-32P]ATP by […] assay
[4] = target: PI3-kinase p110-alpha/p85-alpha (Homo sapiens) (UniProt P27986+P42336); experiment: Inhibition of PI3K P110alpha/p85alpha (unknown origin) assessed as remaining activity at 10 uM in presence of [gamma-32P]ATP by […] assay; format: protein-complex assay
[5] = target: T1, Receptor-type tyrosine-protein kinase FLT3 (Homo sapiens, UniProt P36888); experiment: biochemical; format: cell-based, Sf21
T1 sequence (P36888 whole entry): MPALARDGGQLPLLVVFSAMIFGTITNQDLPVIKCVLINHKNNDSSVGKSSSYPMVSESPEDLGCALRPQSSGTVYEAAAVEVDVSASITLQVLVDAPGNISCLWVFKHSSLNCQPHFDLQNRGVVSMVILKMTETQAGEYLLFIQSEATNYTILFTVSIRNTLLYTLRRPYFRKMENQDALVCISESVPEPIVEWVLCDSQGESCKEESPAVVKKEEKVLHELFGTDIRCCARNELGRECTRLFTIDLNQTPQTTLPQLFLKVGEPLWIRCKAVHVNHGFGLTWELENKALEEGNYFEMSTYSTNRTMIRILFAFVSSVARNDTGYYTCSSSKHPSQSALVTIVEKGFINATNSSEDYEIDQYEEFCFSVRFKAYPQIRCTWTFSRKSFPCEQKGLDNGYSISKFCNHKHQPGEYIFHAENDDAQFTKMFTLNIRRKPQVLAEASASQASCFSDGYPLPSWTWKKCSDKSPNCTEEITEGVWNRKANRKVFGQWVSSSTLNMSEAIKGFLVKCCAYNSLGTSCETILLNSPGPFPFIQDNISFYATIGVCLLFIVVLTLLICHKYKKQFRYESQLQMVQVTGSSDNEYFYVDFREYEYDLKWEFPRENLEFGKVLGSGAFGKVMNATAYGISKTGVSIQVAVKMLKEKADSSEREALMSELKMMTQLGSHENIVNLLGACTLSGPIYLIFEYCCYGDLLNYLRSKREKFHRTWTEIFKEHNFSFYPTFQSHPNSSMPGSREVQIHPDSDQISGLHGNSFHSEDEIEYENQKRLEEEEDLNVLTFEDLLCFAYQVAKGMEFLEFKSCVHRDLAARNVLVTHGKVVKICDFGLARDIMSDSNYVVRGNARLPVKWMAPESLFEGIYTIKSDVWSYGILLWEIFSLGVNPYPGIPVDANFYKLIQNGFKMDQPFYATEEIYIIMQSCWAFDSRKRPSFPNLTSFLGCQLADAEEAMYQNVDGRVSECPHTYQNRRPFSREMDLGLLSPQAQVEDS
Description: Inhibition of recombinant human FLT3 expressed in insect Sf21 cells preincubated for 15 mins followed by poly(Glu:Tyr) substrate addition for 30 mins in presence of [gamma-32P]ATP by TR-FRET assay

[6] = target: Tyrosine-protein kinase Lyn (Homo sapiens) (UniProt P07948); experiment: Inhibition of LYN (unknown origin) assessed as remaining activity at 10 uM in presence of [gamma-32P]ATP by […] assay
[7] = target: Rho-associated protein kinase 2 (Homo sapiens) (UniProt O75116); experiment: Inhibition of human recombinant ROCK-2 expressed in sf21 cells assessed as remaining activity at 10 uM preincubated for 15 mins followed by Long S6 kinase substrate addition measured after 30 mins in presence of [gamma-32P]ATP by […] assay
[8] = target: Mitogen-activated protein kinase 13 (Homo sapiens) (UniProt O15264); experiment: Inhibition of human SAPK4 assessed as remaining activity at 10 uM in presence of [gamma-32P]ATP by […] assay
[9] = target: Angiopoietin-1 receptor (Homo sapiens, UniProt Q02763); experiment: Inhibition of human TIE2 assessed as remaining activity at 10 uM preincubated for 15 mins followed by substrate addition measured after 30 mins in presence of [gamma-32P]ATP by […] assay
[10] = Metabolic stability in rat liver microsomes assessed as compound remaining at 1 uM after 30 mins in presence of NADPH by HPLC-MS analysis; format: ADME; settings: liver microsomes, read-out: Stability
[11] = target: Dual specificity mitogen-activated protein kinase kinase 6 (Homo sapiens) (UniProt P52564); experiment: Inhibition of human MKK6 assessed as remaining activity at 10 uM in presence of [gamma-32P]ATP by […] assay
[12] = target: Vascular endothelial growth factor receptor 1 (Homo sapiens) (UniProt P17948); experiment: Inhibition of recombinant human FLT1 expressed in insect Sf21 cells assessed as remaining activity at 10 uM preincubated for 15 mins followed by poly(Glu:Tyr) substrate addition for 30 mins in presence of [gamma-32P]ATP by […] assay
[13] = Volume of distribution at steady state in Sprague-Dawley rat at 5 mg/kg, iv up to 24 hrs by LC/MS/MS analysis; format: ADME, organism-based; settings: in vivo, read-out: Vdss
[14] = target: MAP kinase-activated protein kinase 2 (Homo sapiens) (UniProt P49137); experiment: Inhibition of recombinant human MAPKAPK2 expressed in Escherichia coli assessed as remaining activity at 10 uM preincubated for 15 mins followed by MAPKAPK substrate peptide addition for 30 mins in presence of [gamma-32P]ATP by […] assay
[15] = AUC (0 to infinity) in Sprague-Dawley rat at 5 mg/kg, iv up to 24 hrs by LC/MS/MS analysis; format: ADME, organism-based; set-up: dose 5 mg/kg, route intravenous, time infinity; settings: in vivo
[16] = target: Tyrosine-protein kinase ABL1 (Homo sapiens, UniProt P00519); experiment: Inhibition of recombinant human ABL1 expressed in insect cells assessed as remaining activity at 10 uM preincubated for 15 mins followed by poly(Glu:Tyr) substrate addition for 30 mins in presence of [gamma-32P]ATP by […] assay
[17] = target: Ribosomal protein S6 kinase alpha-5 (Homo sapiens) (UniProt O75582); experiment: Inhibition of recombinant human MSK1 expressed in insect Sf21 cells assessed as remaining activity at 10 uM preincubated for 15 mins followed by Crosstide KK substrate addition for 30 mins in presence of [gamma-32P]ATP by […] assay
[18] = Elimination half life in Sprague-Dawley rat at 5 mg/kg, iv by LC/MS/MS analysis; format: ADME, organism-based; settings: in vivo, read-out: beta t1/2 (converted)

Sequence of Aurora kinase A (Homo sapiens) (O14965 whole entry): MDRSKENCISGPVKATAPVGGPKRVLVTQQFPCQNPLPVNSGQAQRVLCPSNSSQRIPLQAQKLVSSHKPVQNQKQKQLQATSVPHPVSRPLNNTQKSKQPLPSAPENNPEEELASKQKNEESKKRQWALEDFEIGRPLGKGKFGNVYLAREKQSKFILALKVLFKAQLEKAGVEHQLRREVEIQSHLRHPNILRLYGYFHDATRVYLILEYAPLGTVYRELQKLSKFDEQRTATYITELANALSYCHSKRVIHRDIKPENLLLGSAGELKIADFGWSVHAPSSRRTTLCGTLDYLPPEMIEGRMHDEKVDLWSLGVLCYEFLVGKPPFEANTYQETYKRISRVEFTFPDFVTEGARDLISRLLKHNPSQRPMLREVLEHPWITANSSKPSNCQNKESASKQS
Sequence of Mitogen-activated protein kinase 13 (Homo sapiens) (O15264 whole entry): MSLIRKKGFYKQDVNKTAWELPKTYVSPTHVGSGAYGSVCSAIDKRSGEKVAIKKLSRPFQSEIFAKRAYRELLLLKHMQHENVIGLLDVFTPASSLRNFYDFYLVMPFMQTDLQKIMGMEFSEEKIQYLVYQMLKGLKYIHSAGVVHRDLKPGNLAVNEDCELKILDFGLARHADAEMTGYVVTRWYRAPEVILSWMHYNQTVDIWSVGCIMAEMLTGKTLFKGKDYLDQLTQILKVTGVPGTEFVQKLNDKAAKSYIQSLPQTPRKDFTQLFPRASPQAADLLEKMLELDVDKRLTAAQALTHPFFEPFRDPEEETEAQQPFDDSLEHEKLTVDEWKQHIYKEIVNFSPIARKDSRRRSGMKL
Sequence of MAP kinase-activated protein kinase 2 (Homo sapiens) (P49137 whole entry, looked up): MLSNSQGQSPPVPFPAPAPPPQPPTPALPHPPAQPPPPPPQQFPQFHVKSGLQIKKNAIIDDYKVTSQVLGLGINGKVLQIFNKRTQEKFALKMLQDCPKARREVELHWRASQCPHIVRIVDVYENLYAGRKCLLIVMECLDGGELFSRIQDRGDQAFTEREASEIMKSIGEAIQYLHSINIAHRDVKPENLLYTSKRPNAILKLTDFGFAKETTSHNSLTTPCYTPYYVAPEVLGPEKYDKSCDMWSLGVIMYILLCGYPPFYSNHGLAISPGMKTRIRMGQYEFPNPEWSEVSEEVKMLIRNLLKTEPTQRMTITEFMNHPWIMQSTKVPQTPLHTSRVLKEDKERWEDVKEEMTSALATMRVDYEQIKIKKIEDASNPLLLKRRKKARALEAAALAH
Sequence of Vascular endothelial growth factor receptor 3 (Homo sapiens) (P35916 whole entry): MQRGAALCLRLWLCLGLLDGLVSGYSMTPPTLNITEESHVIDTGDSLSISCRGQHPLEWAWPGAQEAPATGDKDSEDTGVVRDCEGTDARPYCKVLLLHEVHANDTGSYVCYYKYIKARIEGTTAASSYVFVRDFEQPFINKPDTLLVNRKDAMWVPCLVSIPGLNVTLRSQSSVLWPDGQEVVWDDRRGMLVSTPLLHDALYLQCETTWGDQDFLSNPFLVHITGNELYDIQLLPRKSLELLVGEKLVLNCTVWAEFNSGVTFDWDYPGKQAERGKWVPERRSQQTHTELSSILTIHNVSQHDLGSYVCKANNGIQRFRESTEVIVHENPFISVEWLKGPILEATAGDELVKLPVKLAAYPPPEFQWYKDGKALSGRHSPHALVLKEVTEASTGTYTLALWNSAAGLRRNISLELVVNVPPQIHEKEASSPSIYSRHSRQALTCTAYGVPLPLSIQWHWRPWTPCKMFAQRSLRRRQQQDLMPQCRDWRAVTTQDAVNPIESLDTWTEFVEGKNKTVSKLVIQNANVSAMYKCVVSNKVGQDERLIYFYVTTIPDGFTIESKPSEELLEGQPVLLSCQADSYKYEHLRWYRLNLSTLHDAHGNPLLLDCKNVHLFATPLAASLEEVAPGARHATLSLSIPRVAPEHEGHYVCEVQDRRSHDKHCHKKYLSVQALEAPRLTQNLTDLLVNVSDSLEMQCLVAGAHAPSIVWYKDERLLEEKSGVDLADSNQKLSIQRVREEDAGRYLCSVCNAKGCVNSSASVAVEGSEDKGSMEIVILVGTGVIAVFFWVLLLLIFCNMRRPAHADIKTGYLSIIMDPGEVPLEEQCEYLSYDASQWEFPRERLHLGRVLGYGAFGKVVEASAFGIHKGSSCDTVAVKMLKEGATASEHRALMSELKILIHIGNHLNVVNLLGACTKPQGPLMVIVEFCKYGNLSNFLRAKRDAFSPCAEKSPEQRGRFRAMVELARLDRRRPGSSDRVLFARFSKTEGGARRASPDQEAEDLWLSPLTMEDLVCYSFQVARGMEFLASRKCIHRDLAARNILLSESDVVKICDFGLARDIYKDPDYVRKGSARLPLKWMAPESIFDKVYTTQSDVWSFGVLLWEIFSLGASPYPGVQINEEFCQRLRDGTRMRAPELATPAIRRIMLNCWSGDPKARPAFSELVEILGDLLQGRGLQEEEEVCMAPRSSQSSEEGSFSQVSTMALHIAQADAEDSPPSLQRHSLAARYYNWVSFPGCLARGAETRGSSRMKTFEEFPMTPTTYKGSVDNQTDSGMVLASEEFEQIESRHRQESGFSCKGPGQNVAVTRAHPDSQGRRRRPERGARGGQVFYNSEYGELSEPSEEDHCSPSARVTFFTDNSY
Sequence of Dual specificity mitogen-activated protein kinase kinase 6 (Homo sapiens) (P52564 whole entry): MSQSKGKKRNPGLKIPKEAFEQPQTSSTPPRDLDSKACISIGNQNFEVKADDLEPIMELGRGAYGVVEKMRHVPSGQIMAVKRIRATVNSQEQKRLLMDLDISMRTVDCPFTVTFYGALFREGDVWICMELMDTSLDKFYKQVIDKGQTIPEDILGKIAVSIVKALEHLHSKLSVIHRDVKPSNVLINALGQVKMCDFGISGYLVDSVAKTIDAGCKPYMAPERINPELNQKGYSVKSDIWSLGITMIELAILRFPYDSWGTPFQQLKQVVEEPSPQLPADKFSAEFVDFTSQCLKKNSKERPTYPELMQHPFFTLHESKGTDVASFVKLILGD
Sequence of Vascular endothelial growth factor receptor 1 (Homo sapiens) (P17948 whole entry): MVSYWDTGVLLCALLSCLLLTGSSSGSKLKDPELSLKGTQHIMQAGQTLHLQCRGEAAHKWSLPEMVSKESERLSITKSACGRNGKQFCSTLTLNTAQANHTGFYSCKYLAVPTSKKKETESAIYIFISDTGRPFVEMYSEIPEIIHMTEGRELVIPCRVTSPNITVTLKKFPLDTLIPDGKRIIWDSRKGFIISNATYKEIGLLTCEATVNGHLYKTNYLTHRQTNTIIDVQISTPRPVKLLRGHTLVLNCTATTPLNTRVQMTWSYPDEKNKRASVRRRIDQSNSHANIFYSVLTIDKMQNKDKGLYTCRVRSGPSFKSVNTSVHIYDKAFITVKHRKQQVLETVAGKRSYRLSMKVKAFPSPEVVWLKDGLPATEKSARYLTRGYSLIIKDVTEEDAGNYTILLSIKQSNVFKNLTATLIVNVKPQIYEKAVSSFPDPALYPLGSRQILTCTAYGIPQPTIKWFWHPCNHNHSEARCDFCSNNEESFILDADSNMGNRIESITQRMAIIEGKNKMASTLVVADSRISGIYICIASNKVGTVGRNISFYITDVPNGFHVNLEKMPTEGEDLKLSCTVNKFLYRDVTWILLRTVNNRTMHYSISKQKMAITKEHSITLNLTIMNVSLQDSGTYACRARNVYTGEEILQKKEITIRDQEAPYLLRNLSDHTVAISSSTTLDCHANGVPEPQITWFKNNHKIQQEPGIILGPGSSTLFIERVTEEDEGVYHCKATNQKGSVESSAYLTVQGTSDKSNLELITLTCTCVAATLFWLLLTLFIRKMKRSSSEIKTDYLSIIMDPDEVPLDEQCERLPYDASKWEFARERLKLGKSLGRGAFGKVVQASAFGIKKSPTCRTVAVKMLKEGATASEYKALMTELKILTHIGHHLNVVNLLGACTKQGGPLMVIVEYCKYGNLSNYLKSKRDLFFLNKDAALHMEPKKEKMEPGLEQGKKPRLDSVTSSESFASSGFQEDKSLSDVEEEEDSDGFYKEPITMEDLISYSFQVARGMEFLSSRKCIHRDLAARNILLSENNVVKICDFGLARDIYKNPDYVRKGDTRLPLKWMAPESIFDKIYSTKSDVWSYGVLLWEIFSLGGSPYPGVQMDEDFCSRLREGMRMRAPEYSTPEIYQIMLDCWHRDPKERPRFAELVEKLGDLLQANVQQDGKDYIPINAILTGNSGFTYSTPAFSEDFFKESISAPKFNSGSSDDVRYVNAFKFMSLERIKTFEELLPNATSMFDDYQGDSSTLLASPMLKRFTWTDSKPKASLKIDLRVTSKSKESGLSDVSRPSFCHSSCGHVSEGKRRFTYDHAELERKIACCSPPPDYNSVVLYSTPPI
Sequence of Tyrosine-protein kinase Lyn (Homo sapiens) (P07948 2-512 limits assumed): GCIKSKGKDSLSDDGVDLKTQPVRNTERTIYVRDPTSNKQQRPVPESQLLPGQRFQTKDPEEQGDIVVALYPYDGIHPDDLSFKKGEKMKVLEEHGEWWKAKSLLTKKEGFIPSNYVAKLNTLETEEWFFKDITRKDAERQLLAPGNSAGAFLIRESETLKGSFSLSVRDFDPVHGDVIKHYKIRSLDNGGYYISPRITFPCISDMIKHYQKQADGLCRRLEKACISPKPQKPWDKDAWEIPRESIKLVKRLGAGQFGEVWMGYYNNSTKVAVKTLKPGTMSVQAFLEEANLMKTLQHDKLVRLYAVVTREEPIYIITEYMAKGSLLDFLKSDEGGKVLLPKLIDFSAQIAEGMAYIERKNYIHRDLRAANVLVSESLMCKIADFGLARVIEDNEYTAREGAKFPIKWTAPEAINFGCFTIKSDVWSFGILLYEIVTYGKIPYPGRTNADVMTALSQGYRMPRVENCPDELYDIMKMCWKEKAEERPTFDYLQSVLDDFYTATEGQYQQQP

Compound `CNCCOc1ccc(-c2sc3nc(-c4cccs4)nc(NN4C(=O)C=C(C)C4=O)c3c2C)cc1.Cl` has an Activity [1] of 24%, an Activity [2] of 78% and an Activity [3] of 67%. The Activity [4] was 96%, the IC50 [5] was 8.03 nM and the Activity [6] was 58%. For the same compound, the Activity [7] was 93%, the Activity [8] was 93% and the Activity [9] was 16%. It also gave a remaining at 0.5 h, 1 µM [10] of 67.1%, an Activity [11] of 102% and an Activity [12] of 40%. The Vd [13] was 8.22 L/kg, the Activity [14] was 63 to 100% and the AUC(0-inf) [15] was 2120 ng·h/mL. The Activity [16] was 11%, the Activity [17] was 110% and the half-life [18] was 7.61 h.

Reference: ChEMBL document CHEMBL3856191, “Structural modifications at the 6-position of thieno[2,3-d]pyrimidines and their effects on potency at FLT3 for treatment of acute myeloid leukemia” (Eur J Med Chem, 2016)
